Tests used:
[1] = biological target: KRas WT (Homo sapiens, UniProt P01116); experiment: KRas binding assay (TR-FRET displacement), KRas WT; conditions: for inhibition at 0.01 µM: single point, 10 nM compound; for IC50: TR-FRET displacement
[2] = biological target: KRas G13D (Homo sapiens, UniProt P01116, G13D); assay type: binding; conditions: single point, 10 nM compound, read-out: Binding to KRas (% inhibition at 10 nM) G13D
[3] = test system: H727 cells; experiment: Inhibition of KRas-mediated phosphorylation of ERK (Cisbio HTRF pERK), H727 cells; assay type: cell-based; conditions: Homo sapiens, NCI-H727, 3 h, 3 hr compound incubation
[4] = test system: HCT116 cells; experiment: Inhibition of KRas-mediated phosphorylation of ERK (Cisbio HTRF pERK), HCT116 cells; assay type: cell-based; conditions: Homo sapiens, HCT-116, 3 h, 3 hr compound incubation
[5] = test system: ASPC1 cells; experiment: Inhibition of KRas-mediated phosphorylation of ERK (Cisbio HTRF pERK), ASPC1 cells; assay type: cell-based; conditions: Homo sapiens, ASPC1, 3 h, AsPC-1 cells, 3 hr compound incubation
[6] = biological target: KRas Q61H (Homo sapiens, UniProt P01116, Q61H); experiment: KRas binding assay (TR-FRET displacement), KRas Q61H; conditions: single point, 10 nM compound
[7] = biological target: KRas G12S (Homo sapiens, UniProt P01116, G12S); assay type: binding; conditions: for inhibition at 0.01 µM: single point, 10 nM compound, read-out: Binding to KRas (% inhibition at 10 nM) G12S; for IC50: TR-FRET displacement, read-out: Binding to KRas (IC50 nM) G12S
[8] = test system: H358 cells; experiment: Inhibition of KRas-mediated phosphorylation of ERK (Cisbio HTRF pERK), H358 cells; assay type: cell-based; conditions: Homo sapiens; for inhibition at 0.1 µM: NCI-H358, single point at 100 nM, 3 hrs compound incubation; for IC50: NCI-H358, 3 h, 3 hr compound incubation
[9] = test system: PSN1 cells; experiment: Inhibition of KRas-mediated phosphorylation of ERK (Cisbio HTRF pERK), PSN1 cells; assay type: cell-based; conditions: Homo sapiens, PSN1, 3 h
Procedure, shortened: (§1)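 Phospho-ERK signal measured by HTRF after cells had been plated at 6,000/well in RPMI supplemented with 10% FBS on day 1.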

[10] = biological target: KRas G12R (Homo sapiens, UniProt P01116, G12R); experiment: biochemical; conditions: Binding to KRas (IC50 nM) G12R, TR-FRET displacement, KRas G12R
[11] = biological target: KRas G12A (Homo sapiens, UniProt P01116, G12A); assay type: binding; conditions: single point, 10 nM compound, read-out: Binding to KRas (% inhibition at 10 nM) G12A
[12] = biological target: KRas G12V (Homo sapiens, UniProt P01116, G12V); experiment: biochemical; conditions: Binding to KRas (IC50 nM) G12V, TR-FRET displacement, KRas G12V
[13] = biological target: KRas G12C (Homo sapiens, UniProt P01116, G12C); assay type: binding; conditions: for inhibition at 0.01 µM: single point, 10 nM compound, read-out: Binding to KRas (% inhibition at 10 nM) G12C; for IC50: TR-FRET displacement, read-out: Binding to KRas (IC50 nM) G12C
[14] = test system: H460 cells; experiment: Inhibition of KRas-mediated phosphorylation of ERK (Cisbio HTRF pERK), H460 cells; assay type: cell-based; conditions: Homo sapiens, NCI-H460, 3 h, 3 hr compound incubation
[15] = test system: MKN1 cells; experiment: Inhibition of KRas-mediated phosphorylation of ERK (Cisbio HTRF pERK), MKN1 cells; assay type: cell-based; conditions: Homo sapiens
Procedure, shortened: as §1

[16] = biological target: KRas G12D (Homo sapiens, UniProt P01116, G12D); experiment: biochemical; conditions: Binding to KRas (IC50 nM) G12D, TR-FRET displacement, KRas G12D
[17] = test system: A549 cells; experiment: Inhibition of KRas-mediated phosphorylation of ERK (Cisbio HTRF pERK), A549 cells; assay type: cell-based; conditions: Homo sapiens; for inhibition at 0.1 µM: single point at 100 nM, 3 hrs compound incubation; for IC50: A549, 3 h, 3 hr compound incubation
[18] = test system: H2009 cells; experiment: Inhibition of KRas-mediated phosphorylation of ERK (Cisbio HTRF pERK), H2009 cells; assay type: cell-based; conditions: Homo sapiens, NCI-H2009, 3 hr compound incubation
[19] = 3 hour compound incubation, Cisbio pERK HTRF
[20] = MKN-1, 3 hour compound incubation, Cisbio pERK HTRF
[21] = MKN-1, 3 hr compound incubation

KRas G12V, sequence (P01116 1-169 isoform P01116-2 G12V): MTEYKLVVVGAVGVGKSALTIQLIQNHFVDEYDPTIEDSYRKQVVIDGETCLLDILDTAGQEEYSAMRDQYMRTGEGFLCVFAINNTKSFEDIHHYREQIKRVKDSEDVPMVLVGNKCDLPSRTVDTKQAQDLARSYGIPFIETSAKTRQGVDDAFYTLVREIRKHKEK
KRas G12S, sequence (P01116 1-169 isoform P01116-2 G12S): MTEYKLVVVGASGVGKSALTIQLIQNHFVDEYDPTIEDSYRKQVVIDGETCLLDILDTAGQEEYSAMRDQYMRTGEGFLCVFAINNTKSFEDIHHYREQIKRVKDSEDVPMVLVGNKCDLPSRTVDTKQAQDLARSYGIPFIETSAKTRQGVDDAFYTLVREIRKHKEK
KRas G12C, sequence (P01116 1-169 isoform P01116-2 G12C): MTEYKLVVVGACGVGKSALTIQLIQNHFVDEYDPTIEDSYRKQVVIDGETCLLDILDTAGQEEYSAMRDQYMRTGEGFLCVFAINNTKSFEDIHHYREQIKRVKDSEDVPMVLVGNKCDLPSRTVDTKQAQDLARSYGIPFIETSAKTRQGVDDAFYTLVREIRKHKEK
KRas G12D, sequence (P01116 1-169 isoform P01116-2 G12D): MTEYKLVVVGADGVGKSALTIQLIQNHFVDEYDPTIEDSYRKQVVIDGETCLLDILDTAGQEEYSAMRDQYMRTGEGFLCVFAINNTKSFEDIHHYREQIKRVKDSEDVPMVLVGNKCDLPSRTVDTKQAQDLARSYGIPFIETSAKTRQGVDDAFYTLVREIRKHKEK
KRas WT, sequence (P01116 1-169 isoform P01116-2): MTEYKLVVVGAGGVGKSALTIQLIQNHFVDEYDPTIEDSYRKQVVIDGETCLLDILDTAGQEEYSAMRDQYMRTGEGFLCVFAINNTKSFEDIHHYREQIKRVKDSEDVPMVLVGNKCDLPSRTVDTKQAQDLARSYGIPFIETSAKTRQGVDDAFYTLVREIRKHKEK
KRas G12R, sequence (P01116 1-169 isoform P01116-2 G12R): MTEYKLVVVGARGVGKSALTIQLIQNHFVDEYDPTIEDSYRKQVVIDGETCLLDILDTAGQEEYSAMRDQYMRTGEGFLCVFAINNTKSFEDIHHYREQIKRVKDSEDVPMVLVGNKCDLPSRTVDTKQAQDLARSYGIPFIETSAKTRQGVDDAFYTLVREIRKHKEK
KRas G12A, sequence (P01116 1-169 isoform P01116-2 G12A): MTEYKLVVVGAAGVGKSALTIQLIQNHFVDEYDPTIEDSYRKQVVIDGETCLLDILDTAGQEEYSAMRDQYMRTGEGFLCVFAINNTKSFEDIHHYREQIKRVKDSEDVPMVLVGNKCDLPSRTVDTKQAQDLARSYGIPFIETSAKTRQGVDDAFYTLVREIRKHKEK
KRas G13D, sequence (P01116 1-169 isoform P01116-2 G13D): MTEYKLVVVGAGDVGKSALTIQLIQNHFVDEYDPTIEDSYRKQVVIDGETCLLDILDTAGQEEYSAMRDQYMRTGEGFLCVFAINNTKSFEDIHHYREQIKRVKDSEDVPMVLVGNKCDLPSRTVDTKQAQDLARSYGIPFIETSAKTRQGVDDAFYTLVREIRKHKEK
KRas Q61H, sequence (P01116 1-169 isoform P01116-2 Q61H): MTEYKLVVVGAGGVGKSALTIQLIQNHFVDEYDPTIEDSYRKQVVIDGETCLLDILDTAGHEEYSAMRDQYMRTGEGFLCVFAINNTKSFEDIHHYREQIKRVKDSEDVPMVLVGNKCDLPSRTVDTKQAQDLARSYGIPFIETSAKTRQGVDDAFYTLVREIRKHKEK

inhibition at 0.01 µM [1] [%] | inhibition at 0.01 µM [2] [%] | IC50 ([3]; Cisbio pERK HTRF) [nM] | IC50 ([4]; Cisbio pERK HTRF) [nM] | IC50 ([5]; Cisbio pERK HTRF) [nM] | inhibition at 0.01 µM [6] [%] | IC50 [12] [nM] | IC50 [16] [nM] | IC50 [1] [nM] | IC50 [3] [nM] | IC50 [4] [nM] | IC50 [5] [nM] | IC50 [7] [nM] | IC50 [8] [nM] | IC50 ([9]; 3 hr compound incubation) [nM] | IC50 [18] [nM] | IC50 [13] [nM] | IC50 [14] [nM] | IC50 [15, 21] [nM] | IC50 [17] [nM] | SMILES | other results
55 | 50 | 136 | 813 | 72 | 54 | 2 | 3 | – | – | – | – | – | – | – | – | – | – | – | – | CCc1c(F)ccc2cc(O)cc(N3CCc4c(nc(OC[C@@]56CCCN5C[C@H](F)C6)nc4N4CCCn5nc6c(c5C4)CCCN6)C3)c12 [Example 392, 5-ethyl-6-fluoro-4-(2-(((2R,7aS)-2-fluorohexahydro-1H-pyrrolizin-7a-yl)methoxy)-4-(3,4,8,9-tetrahydro-1H-pyrido[2′,3′:3,4]pyrazolo[1,5-a][1,4]diazepin-6(2H,5H,7H)-yl)-5,6-dihydropyrido[3,4-d]pyrimidin-7(8H)-yl)naphthalen-2-ol] | inhibition at 0.01 µM [7]: 71%; inhibition at 0.1 µM [8]: 47%; IC50 [9, 19]: > 10000 nM; IC50 [10]: < 2 nM; inhibition at 0.01 µM [11]: 56%; inhibition at 0.01 µM [13]: 78%; IC50 ([14]; Cisbio pERK HTRF): 285 nM; IC50 [15, 20]: 111 nM; inhibition at 0.1 µM [17]: 38%
60 | 64 | 201 | 235 | 59 | 60 | 5 | 4 | – | – | – | – | – | – | – | – | – | – | – | – | CCc1c(F)ccc2cc(O)cc(N3CCc4c(nc(OC[C@@]56CCCN5C[C@H](F)C6)nc4N4CCCn5nc(NC)c(OC)c5C4)C3)c12 [Example 393, 5-ethyl-6-fluoro-4-(2-(((2R,7aS)-2-fluorohexahydro-1H-pyrrolizin-7a-yl)methoxy)-4-(3-methoxy-2-(methylamino)-7,8-dihydro-4H-pyrazolo[1,5-a][1,4]diazepin-5(6H)-yl)-5,6-dihydropyrido[3,4-d]pyrimidin-7(8H)-yl)naphthalen-2-ol] | inhibition at 0.01 µM [7]: 72%; inhibition at 0.1 µM [8]: 83%; IC50 [9, 19]: > 10000 nM; IC50 [10]: 4 nM; inhibition at 0.01 µM [11]: 66%; inhibition at 0.01 µM [13]: 83%; IC50 ([14]; Cisbio pERK HTRF): 72 nM; IC50 [15, 20]: 58.5 nM; inhibition at 0.1 µM [17]: 41%
– | – | – | – | – | – | 60 | 57 | 52 | 1110 | 1860 | 626 | 60 | 484 | > 10000 | 221 | 48 | 813 | 75.9 | 1210 | C[C@@]1(O)COCCN(c2nc(OC[C@@]34CCCN3C[C@H](F)C4)nc3c2CCN(c2ccc(F)c4sc(N)c(C#N)c24)C3)C1 [Example 710, 2-amino-7-fluoro-4-(2-(((2R,7aS)-2-fluorotetrahydro-1H-pyrrolizin-7a(5H)-yl)methoxy)-4-((S)-6-hydroxy-6-methyl-1,4-oxazepan-4-yl)-5,8-dihydropyrido[3,4-d]pyrimidin-7(6H)-yl)benzo[b]thiophene-3-carbonitrile] | –
– | – | – | – | – | – | 21 | 17 | 10 | 7410 | 7220 | 1940 | 13 | 2680 | > 10000 | 424 | 19 | 2520 | 830 | 4820 | C[C@@]1(O)CCCN(c2nc(OC[C@@]34CCCN3C[C@H](F)C4)nc3c2CCN(c2ccc(F)c4sc(N)c(C#N)c24)C3)C1 [Example 711, 2-amino-7-fluoro-4-(2-(((2R,7aS)-2-fluorotetrahydro-1H-pyrrolizin-7a(5H)-yl)methoxy)-4-((R)-3-hydroxy-3-methylpiperidin-1-yl)-5,8-dihydropyrido[3,4-d]pyrimidin-7(6H)-yl)benzo[b]thiophene-3-carbonitrile] | –
– | – | – | – | – | – | 3 | 3 | 2 | 421 | 240 | 70 | < 2 | 30 | 806 | 19 | 2 | 141 | 1.4 | 216 | C=C1CN2CCCC2(COc2nc3c(c(N4CCCC5(CNS(=O)(=O)N5)C4)n2)CCN(c2cc(O)cc4ccc(F)c(CC)c24)C3)C1 (stereo not drawn) [Example 712, 7-(7-(8-ethyl-7-fluoro-3-hydroxynaphthalen-1-yl)-2-((2-methylenetetrahydro-1H-pyrrolizin-7a(5H)-yl)methoxy)-5,6,7,8-tetrahydropyrido[3,4-d]pyrimidin-4-yl)-2-thia-1,3,7-triazaspiro[4.5]decane 2,2-dioxide] | –
– | – | – | – | – | – | < 2 | 2 | < 2 | 67 | 253 | 51 | < 2 | 29 | 1800 | 17 | < 2 | 127 | 10.5 | 92 | C=C1CN2CCCC2(COc2nc3c(c(N4CCCC5(CCO5)C4)n2)CCN(c2cc(O)cc4ccc(F)c(CC)c24)C3)C1 (stereo not drawn) [Example 713, 5-ethyl-6-fluoro-4-(2-((2-methylenetetrahydro-1H-pyrrolizin-7a(5H)-yl)methoxy)-4-(1-oxa-6-azaspiro[3.5]nonan-6-yl)-5,8-dihydropyrido[3,4-d]pyrimidin-7(6H)-yl)naphthalen-2-ol] | –
